Experimental data taken from US7258878B2, “Anti-microbial composition and methods of use thereof” (Kimberly-Clark Worldwide, Inc., priority 2004, dated 2007).
Like-named read-outs stand apart in the source and are kept apart here.

Columns and labels:
[1] = system: E. coli (ATCC 8739; Gram negative bacteria); assay: Zone of inhibition test against E. coli; format: cell-based, Escherichia coli; details: for zone of inhibition at 1000 µg/mL / zone of inhibition at 10000 µg/mL: Escherichia coli
Experimental: (§1) Natural compounds were evaluated for anti-microbial activity using the zone of inhibition test (ASTM E214901). The activity against five types of microorganisms: Staphylococcus aureus, Pseudomonas aeruginosa, Escherichia coli, Aspergillis niger and Candida albicans, was evaluated. These microorganisms represent gram positive and gram negative bacteria, fungi and yeast.
(§2) The compounds were tested for activity against E. coli (ATCC 8739; Gram negative bacteria), S. aureus (ATCC 6538; Gram positive bacteria), P. aeruginosa (ATCC 9027; Gram negative bacteria), C. albicans (ATCC 10231; yeast) and A niger (ATCC 16404; fungus) at 1 and 10 mg/ml concentrations by using the zone of inhibition method along with triclosan as a positive control.
(§3) The following natural compounds were tested for their anti-fungal properties: eucalyptol, cineole (SIGMA C-8144); gallic acid, 3,4,5-trihydroxybenzoic acid (SIGMA G-7384); methyl jasmonate, 95% (Aldrich 39270-7); and naringin: >95%, made from citrus fruit (SIGMA N-1376). A DMSO/water (75/25 by volume) mixture was used as the carrying solvent for each compound tested. The compounds were tested at 1 and 10 mg/ml concentrations by using the zone of inhibition method along with triclosan as a positive control.
(§4) Microorganism cultures of 10^5 cfu (colony forming units)/ml in a 1×PBS (phosphate buffered saline) solution were used. One ml of the solution was plated on a trypticase soy agar plate (TSA) and allowed to grow at 35° C. for four hours. 4 mm diameter wells were then punched in each TSA plate and 100 μl of each compound being tested was added to these wells. The plates were incubated overnight at 35° C. Lawn clearing was measured the next day as an indicator of antimicrobial activity.

[2] = system: Lactobacillus acidophilus (ATCC 11975); assay: Zone of inhibition test against Lactobacillus acidophilus; format: cell-based; details: sample size 100 μl; for Zone of Inhibition: duplicate
Experimental: as §4
Five of these compounds were tested against Lactobacillus acidophilus (ATCC 11975). None of the compounds tested had antimicrobial activity against lactobacilli, a microorganism normally found in humans, specifically in the vagina. Due to their ability to derive lactic acid from glucose, these bacteria create an acidic environment that inhibits growth of many bacterial species that can lead to urogenital infections. Lactobacillus is generally harmless to humans, rarely inciting harmful infections or diseases. Thus, these compounds can be effectively utilized to develop products to address infections arising from Candida, Aspergillus and related species without destroying the normal balance of microbial species found in human gastrointestinal tract.
Gallic acid, 3,4,5-trihydroxybenzoic acid (SIGMA G-7384); eucalyptol, cineole (SIGMA C-8144); naringin: >95%, made from citrus fruit (SIGMA N-1376), and methyl jasmonate, 95% (Aldrich 39270-7) were tested in two concentrations (1 and 10 mg/ml) in DMSO:water (75:25) along with positive control (chlorhexidine 5 mg/ml in 75:25 DMSO:water) and a negative control (75:25 DMSO:water). All tests were conducted in duplicate in a zone of inhibition study (as described in Example 1).

[3] = system: P. aeruginosa (ATCC 9027; Gram negative bacteria); assay: Zone of inhibition test against P. aeruginosa; format: cell-based, Pseudomonas aeruginosa; details: for zone of inhibition at 1000 µg/mL / zone of inhibition at 10000 µg/mL: Pseudomonas aeruginosa
Experimental: as §1, §2, §3, §4

[4] = system: S. aureus (ATCC 6538; Gram positive bacteria); assay: Zone of inhibition test against S. aureus; format: cell-based, Staphylococcus aureus; details: for zone of inhibition at 1000 µg/mL / zone of inhibition at 10000 µg/mL: Staphylococcus aureus
Experimental: as §1, §2, §3, §4

[5] = system: A niger (ATCC 16404; fungus); assay: Zone of inhibition test against A. niger; format: cell-based, Aspergillis niger; details: for zone of inhibition at 1000 µg/mL / zone of inhibition at 10000 µg/mL: Aspergillus niger
Experimental: as §1, §2, §3, §4

[6] = system: C. albicans (ATCC 10231; yeast); assay: Zone of inhibition test against C. albicans; format: cell-based, Candida albicans; details: for zone of inhibition at 1000 µg/mL / zone of inhibition at 10000 µg/mL: Candida albicans; for Selective inhibition of C. albicans (conclusion in words): zone of inhibition, five organisms tested, 1 and 10 mg/ml
Experimental: as §1, §2, §3, §4

[7] = ATCC8739, concentration 1 mg/ml, 100 μl per well, DMSO/water 75/25, read-out: Zone of inhibition E. coli
[8] = ATCC8739, concentration 10 mg/ml, 100 μl per well, DMSO/water 75/25
[9] = 1 mg/ml in DMSO:water 75:25, inoculum 5.8 × 10^5 CFU/ml
[10] = 10 mg/ml in DMSO:water 75:25, inoculum 5.8 × 10^5 CFU/ml
[11] = ATCC9027, concentration 1 mg/ml, 100 μl per well, DMSO/water 75/25, read-out: Zone of inhibition P. aeruginosa
[12] = ATCC9027, concentration 10 mg/ml, 100 μl per well, DMSO/water 75/25
[13] = ATCC6538, concentration 1 mg/ml, 100 μl per well, DMSO/water 75/25, read-out: Zone of inhibition S. aureus
[14] = ATCC6538, concentration 10 mg/ml, 100 μl per well, DMSO/water 75/25
[15] = ATCC16404, concentration 1 mg/ml, 100 μl per well, DMSO/water 75/25, read-out: Zone of inhibition A. niger
[16] = ATCC16404, concentration 10 mg/ml, 100 μl per well, DMSO/water 75/25
[17] = ATCC10231, concentration 1 mg/ml, 100 μl per well, DMSO/water 75/25, read-out: Zone of inhibition C. albicans
[18] = ATCC10231, concentration 10 mg/ml, 100 μl per well, DMSO/water 75/25
[19] = concentration 1 mg/ml, 100 μl per well, DMSO/water 75/25
[20] = concentration 10 mg/ml, 100 μl per well, DMSO/water 75/25

SMILES	zone of inhibition at 1000 µg/mL [1, 7]	zone of inhibition at 10000 µg/mL [1, 8]	Zone of Inhibition [2, 9]	Zone of Inhibition [2, 10]	zone of inhibition at 1000 µg/mL [3, 11]	zone of inhibition at 10000 µg/mL [3, 12]	zone of inhibition at 1000 µg/mL [4, 13]	zone of inhibition at 10000 µg/mL [4, 14]	zone of inhibition at 1000 µg/mL [5, 15]	zone of inhibition at 10000 µg/mL [5, 16]	zone of inhibition at 1000 µg/mL [6, 17]	zone of inhibition at 10000 µg/mL [6, 18]	Selective inhibition of C. albicans (conclusion in words) [6]	Zone of inhibition E. coli [1, 19]	Zone of inhibition E. coli [1, 20]	Zone of inhibition P. aeruginosa [3, 19]	Zone of inhibition P. aeruginosa [3, 20]	Zone of inhibition S. aureus [4, 19]	Zone of inhibition S. aureus [4, 20]	Zone of inhibition A. niger [5, 19]	other results
CC12CCC(CC1)C(C)(C)O2 [Eucalyptol, 1,3,3-Trimethyl-2-oxabicyclo[2,2,2]-octane]	0 mm	0 mm	None	None	0 mm	0 mm	0 mm	0 mm	0 mm	0 mm	3 mm	3 mm	selective inhibitors of C. albicans with no effect on the other four organisms tested								
O=C(O)c1cc(O)c(O)c(O)c1 [Gallic acid, 3,4,5-trihydroxybenzoic acid]	0 mm	0 mm	None	None	0 mm	0 mm	0 mm	0 mm	0 mm	0 mm	5 mm	4 mm	selective inhibitors of C. albicans with no effect on the other four organisms tested								
CC/C=C\CC1C(=O)CCC1CC(=O)OC (centres unmarked) [Methyl jasmonate, methyl jasmonate]			None	None									selectively inhibit both C. albicans and A. niger	0 mm	0 mm	0 mm	0 mm	0 mm	2 mm	0 mm	Zone of inhibition A. niger [5, 20]: 5 mm; Selective inhibition of A. niger (conclusion in words) ([5]; zone of inhibition, five organisms tested, 1 and 10 mg/ml): selectively inhibit both C. albicans and A. niger; Zone of inhibition C. albicans [6, 19]: 0 mm; Zone of inhibition C. albicans [6, 20]: 7.5 mm
C[C@@H]1O[C@@H](O[C@H]2[C@H](Oc3cc(O)c4c(c3)OC(c3ccc(O)cc3)CC4=O)O[C@H](CO)[C@@H](O)[C@@H]2O)[C@H](O)[C@H](O)[C@H]1O (stereo partly drawn) [Naringin, 7-[[2-O-(6-Deoxy-α-L-mannopyrano-syl)-β-D-glucopyranosyl]oxy]-2,3-dihydro-5-hydroxy-2-(4-hydroxyphenyl)-4H-1-benzopyran-4-one]			None	None									selective inhibitors of C. albicans with no effect on the other four organisms tested	0 mm	0 mm	0 mm	0 mm	0 mm	0 mm	0 mm	Zone of inhibition A. niger [5, 20]: 0 mm; Zone of inhibition C. albicans [6, 19]: 3 mm; Zone of inhibition C. albicans [6, 20]: 3.5 mm
[H]/N=C(\N/C(=N/[H])NCCCCCCNC(=N)NC(=N)Nc1ccc(Cl)cc1)Nc1ccc(Cl)cc1 [Positive control, chlorhexidine, reference compound]																					zone of inhibition at 5000 µg/mL ([2]; Lactobacillus acidophilus, ATCC11975, positive control, chlorhexidine 5 mg/ml in 75:25 DMSO:water, inoculum 5.8 × 10^5 CFU/ml): 6 mm
Oc1cc(Cl)ccc1Oc1ccc(Cl)cc1Cl [Triclosan, triclosan, reference compound]																					zone of inhibition at 1000 µg/mL ([1]; ATCC8739, read-out: Zone of inhibition E. coli): 11 mm; zone of inhibition at 1000 µg/mL ([3]; ATCC9027, read-out: Zone of inhibition P. aeruginosa): 0 mm; zone of inhibition at 1000 µg/mL ([4]; ATCC6538, read-out: Zone of inhibition S. aureus): 10 mm; zone of inhibition at 1000 µg/mL ([5]; ATCC16404, read-out: Zone of inhibition A. niger): 10 mm; zone of inhibition at 1000 µg/mL ([6]; ATCC10231, read-out: Zone of inhibition C. albicans): 8.5 mm
